Data taken from patent US20200222372A1 (Ovid Therapeutics Inc., priority 2017, published 2020).

Experiments:
[1] = system: onset of REM sleep; experiment: Delay of onset of REM sleep after falling asleep in narcoleptic patient; assay type: in vivo, human (narcoleptic patient); settings: 0.5 mg to 25 mg gaboxadol or salt
Description: As mentioned above, people with narcolepsy frequently abnormally enter REM sleep within 15 minutes of falling asleep. […] Without wishing to be bound by any theory, symptoms associated with narcolepsy such as cataplexy, sleep paralysis, hallucinations, and automatic behaviors closely mimic the natural physiologic response that occurs during REM sleep. By inducing a more normal REM sleep architecture in narcoleptic patients, symptoms associated with narcolepsy are reduced or alleviated. […] In embodiments, the delay of onset of REM sleep is about 30 minutes or longer. In embodiments, the delay of onset of REM sleep is about 45 minutes or longer. In embodiments, the delay of onset of REM sleep is about 60 minutes or longer. In embodiments, the delay of onset of REM sleep is about 75 minutes or longer.

[2] = human, in vivo

Oc1noc2c1CCNC2 [gaboxadol, 4,5,6,7-tetrahydroisoxazolo [5,4-c] pyridine-3-ol]
onset of REM sleep after falling asleep [1]: ≥ 30 min | CL for 10 mg IV (in CL/F row) [2]: 438 mL/min
